Assay results published in patent US20070021391A1, “Preventive/remedy for urinary disturbance” (priority 2003, published 2007).
Structures can show the parent of a compound that is named as a salt. Where two headings read alike, the source gives them in different places.

How the values were obtained:
[1] = molecular target: T1, butyrylcholine esterase of human serum origin (Homo sapiens, UniProt P06276); test: biochemical; type: biochemical; conditions: for IC50: mean value of twice tests
T1 construct: butyrylcholine esterase of human serum origin; purchased Biogenesis, Poole, UK; host or cells: human serum
Description: The AChE inhibitory activity and the BuChE inhibitory activity were determined by a thiocholine method (Ellman method) using acetylcholine esterase of human erythrocyte origin (Sigma, St. Louis, Mo., USA) and butyrylcholine esterase of human serum origin (Biogenesis, Poole, UK). Acetylcholine esterase or butyrylcholine esterase was diluted to a concentration of 0.2 IU/mL with 80 mM tris-HCL buffers (pH=7.4) containing 0.3% bovine serum albumin (BSA) to prepare an enzyme preparation. […] The stock solution was diluted at 3-fold common ratio with 10% DMSO and 80 mM tris-HCl buffers containing 0.3% BSA. On a 96 wells microplate, 20 μL of the drug solution with a given concentration, 30 μL of 80 mM tris-HCl buffers containing 0.3% BSA and 50 μL of the enzyme preparation were distributed, and incubated at room temperature for 1 hour after shaking for 10 seconds. […] For the respective drugs, the test was repeated twice. The % of control of the increase in light absorption was calculated at each concentration with respect to the respective drugs. % of control=increase in light absorption of drug/increase in light absorption of control×100

[2] = test system: Hartley male guinea pig, urethane anesthesia; test: Pressure/flow study using guinea pig under continuous phenylephrine (Example 4); type: in vivo; conditions: 0.1 mg/kg, i.v.; phenylephrine 3 μg/animal/min
Description: A parameter (the maximum urine flow rate) at urination and a parameter (bladder compliance) at the collection of urine were also measured by a method similar as Example 3 shown below, with respect to the compounds B1 to B6 ([Table 8]).
A Hartley male guinea pig of 4 to 5 weeks old (Japan SLC) was used. After urethane anesthesia, the medial incision of the lower abdomen was carried out, and the bladder was exposed. Two injection needles (20G) with which a polyethylene tube (PE-100) was linked were inserted in the bladder, and one needle was used for injection of saline and another needle was used for measurement of the inner pressure of the bladder. A catheter was inserted in fernoral vein, and phenylephrine was continuously administrated at a flow rate of 3 μg/animal/min. Saline was continuously injected at a speed of 18 mL/h, the injection was stopped after intermittent urination was confirmed 2 times at minimum, and the saline in the bladder was removed by suction. Injection was started again, and the injection was stopped when the raise of the inner pressure of the bladder just before urination was confirmed. The amount of urine eliminated was measured by an electronic weighing machine and the inner pressure of the bladder was measured using a pressure transducer. The analogue data of the weight of urine and the inner pressure of the bladder were inputted in a multi-channel data analyzer (MP-100A-CE, Biopac systems), and analyzed by a proprietary software (Acqknowledge, Biopac systems). As the parameters, the maximum urine flow rate and bladder compliance were measured. Saline in the bladder was extracted after 10 min of the intravenous administration of the compound, and injection was started again to carry out measurement. The compounds were dissolved with DMSO so that administration volume was 0.5 mL/kg. The change rate of respective parameters before and after administration of the compounds was calculated and the calibration of significant difference was carried out by a solvent administration group and t calibration.

[3] = molecular target: T2, acetylcholine esterase of human erythrocyte origin (Homo sapiens, UniProt P22303); test: biochemical; type: biochemical; conditions: for IC50: mean value of twice tests
T2 construct: acetylcholine esterase of human erythrocyte origin; purchased Sigma, St. Louis, Mo., USA; host or cells: human erythrocytes

[4] = test system: Hartley male guinea pig, urethane anesthesia; test: Pressure/flow study using guinea pig (Example 3); type: in vivo; conditions: for Amount of urination, proportion for value before administration (%) / At maximum urine flow rate Inner pressure of bladder, proportion for value before administration (%) / Maximum urine flow rate, proportion for value before administration (%): i.v.; for Bladder compliance, proportion for value before administration (%) / Bladder volume, proportion for value before administration (%): iv; for change of the parameters at urination and at collection of urine (text): intravenous administration
Description: A Hartley male guinea pig of 5 weeks old (Japan SLC) was used. After urethane anesthesia, the medial incision of the lower abdomen was carried out, and the bladder was exposed. Two injection needles (20G) with which a polyethylene tube (PE-100) was linked were inserted in the bladder, and one needle was used for injection of saline and another needle was used for measurement of the inner pressure of the bladder. The injection of saline was continuously carried out at a rate of 18 mL/h using a syringe pump (SP-100S, JMS, and Hiroshima), the injection was stopped after intermittent urination was confirmed 3 times at minimum, and the saline in the bladder was removed by suction. Injection was started again, and the injection was stopped when the raise of the inner pressure of the bladder just before urination was confirmed. The amount of urine excreted was measured by an electronic weighing machine (HX-400, A&D, and Tokyo) and the inner pressure of the bladder was measured using a pressure transducer (AP641G, NIPPON KODEN Corporation). The analogue data of the weight of urine and the inner pressure of the bladder were inputted in a multi-channel data analyzer (MP-100A-CE, Biopac systems), and analyzed by a proprietary software (Acqknowledge, Biopac systems). The sampling interval of data was 0.1 second and a low pass filter was applied to the data of discharge amount and urine flow rate at 0.5 Hz in order to remove noise. A delay time of 0.1 second in weighing the urine was rectified, and the urine flow rate was determined by differentiating the value of discharge amount. After a value before twice administration of the drug was measured, the drugs (the compound A, distigmine, neostigigmine and bethanechol) were intravenously administrated. Saline in the bladder was extracted after 10 minutes of administration of the compound A, bethanechol and neostigigmine and after 30 minutes of administration of distigmine, and injection was started again to measure data. The drugs were dissolved with distilled water so that administration volume was 0.5 mL/kg. Parameters (bladder volume, the amount of urination, the maximum urine flow rate, the inner pressure of the bladder at the maximum urine flow, bladder compliance) below were measured. The bladder compliance was calculated from intersection point (the threshold of bladder volume, threshold pressure) which was obtained by determining regression line in the respective curves of the inner pressure of the bladder at collection of urine and urinary reflex. The change rate before and after administration of the drug was calculated for the respective parameters and the calibration of significant difference was carried out by a solvent administration group and Dunnett calibration (Table 6 and Table 7).

bladder muscle = test system: bladder muscle; set-up: species or system guinea pig; conditions: for Tension (%): 30 minutes, change of basic tension, 100 mM KCl contraction = 100%; for effect on basic tension: drug alone

T2 sequence (P22303 32-617 isoform P22303-2 limits assumed): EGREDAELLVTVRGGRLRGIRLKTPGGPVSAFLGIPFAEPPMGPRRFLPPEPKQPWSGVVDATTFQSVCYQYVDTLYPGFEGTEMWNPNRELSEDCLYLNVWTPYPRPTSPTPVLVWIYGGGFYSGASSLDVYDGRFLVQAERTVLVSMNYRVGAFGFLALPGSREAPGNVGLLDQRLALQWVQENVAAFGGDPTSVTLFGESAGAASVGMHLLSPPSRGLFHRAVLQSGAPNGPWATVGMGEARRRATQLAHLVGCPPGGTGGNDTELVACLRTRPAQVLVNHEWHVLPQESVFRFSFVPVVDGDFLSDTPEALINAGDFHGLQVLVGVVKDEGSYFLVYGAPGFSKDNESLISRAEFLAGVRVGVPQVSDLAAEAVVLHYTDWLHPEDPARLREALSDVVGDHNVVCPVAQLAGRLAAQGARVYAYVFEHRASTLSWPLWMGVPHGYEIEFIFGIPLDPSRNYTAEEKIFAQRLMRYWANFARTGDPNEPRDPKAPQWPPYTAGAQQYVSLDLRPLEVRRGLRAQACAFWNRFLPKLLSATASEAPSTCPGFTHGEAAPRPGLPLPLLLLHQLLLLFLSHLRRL
T1 sequence (P06276 29-602): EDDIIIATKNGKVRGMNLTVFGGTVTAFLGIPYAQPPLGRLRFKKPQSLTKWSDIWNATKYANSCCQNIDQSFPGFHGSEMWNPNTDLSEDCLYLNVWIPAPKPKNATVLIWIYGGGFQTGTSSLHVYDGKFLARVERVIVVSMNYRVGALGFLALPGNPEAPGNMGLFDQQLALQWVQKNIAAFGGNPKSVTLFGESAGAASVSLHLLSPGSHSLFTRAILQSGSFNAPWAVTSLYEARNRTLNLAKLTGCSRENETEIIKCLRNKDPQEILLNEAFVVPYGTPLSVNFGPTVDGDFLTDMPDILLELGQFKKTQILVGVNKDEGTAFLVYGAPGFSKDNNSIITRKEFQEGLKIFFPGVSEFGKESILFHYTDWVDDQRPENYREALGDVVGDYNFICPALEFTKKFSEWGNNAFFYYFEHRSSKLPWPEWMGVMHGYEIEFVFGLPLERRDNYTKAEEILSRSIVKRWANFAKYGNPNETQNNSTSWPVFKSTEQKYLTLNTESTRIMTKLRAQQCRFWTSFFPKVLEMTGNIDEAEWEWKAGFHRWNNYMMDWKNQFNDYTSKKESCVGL

Structure (SMILES) | Amount of urination, proportion for value before administration (%) ([4]; 0.1 mg/kg) | At maximum urine flow rate Inner pressure of bladder, proportion for value before administration (%) ([4]; 0.1 mg/kg) | Maximum urine flow rate, proportion for value before administration (%) ([4]; 0.1 mg/kg) | Bladder compliance, proportion for value before administration (%) ([4]; 0.1 mg/kg) | Bladder volume, proportion for value before administration (%) ([4]; 0.1 mg/kg) | Amount of urination, proportion for value before administration (%) ([4]; 0.3 mg/kg) | At maximum urine flow rate Inner pressure of bladder, proportion for value before administration (%) ([4]; 0.3 mg/kg) | Maximum urine flow rate, proportion for value before administration (%) ([4]; 0.3 mg/kg) | Bladder compliance, proportion for value before administration (%) ([4]; 0.3 mg/kg) | Bladder volume, proportion for value before administration (%) ([4]; 0.3 mg/kg) | change of the parameters at urination and at collection of urine (text) [4] | Tension (%) (bladder muscle; 0.3 μM) | Tension (%) (bladder muscle; 1 μM) | Tension (%) (bladder muscle; 3 μM) | effect on basic tension (bladder muscle) | other results
CN(CCCCC(=O)c1ccc2c(c1)n(C)c(=O)n2C)CCc1ccccc1Cl [Compound B3, 5-[5-[[2-(2-chlorophenyl)ethyl](methyl)amino]pentanoyl]-1,3-dimethyl-1,3-dihydro-2H-benzoimidazol-2-one) hydrochloride] |  |  |  |  |  |  |  |  |  |  |  |  |  |  |  | IC50 ([1]; read-out: BuChE IC50): > 10000 nM; Bladder compliance, proportion for value before administration [2]: 94.7 ± 11.1; Maximum urine flow rate, proportion for value before administration [2]: 150.8 ± 19.4; Selectivity b/a ([3]; BuChE IC50/AChE IC50 (Table 3)): >350; IC50 ([3]; read-out: AchE IC50): 28 nM
CC(C[N+](C)(C)C)OC(N)=O (stereo not shown) [Bethanechol] | 74.5 ± 13.1% | 107.0 ± 7.1% | 72.8 ± 9.8% | 75.7 ± 9.8% | 86.0 ± 2.5% | 63.5 ± 8.5% | 99.2 ± 6.4% | 81.00 ± 12.1% | 62.6 ± 6.8 % | 85.3 ± 6.3% | lowered the amount of urination, bladder volume and bladder compliance significantly |  |  |  |  | Amount of urination, proportion for value before administration (%) ([4]; 1 mg/kg): 39.1 ± 8.0 %; At maximum urine flow rate Inner pressure of bladder, proportion for value before administration (%) ([4]; 1 mg/kg): 104.9 ± 13.0%; Maximum urine flow rate, proportion for value before administration (%) ([4]; 1 mg/kg): 66.1 ± 12.3%; Bladder compliance, proportion for value before administration (%) ([4]; 1 mg/kg): 45.3 ± 4.9 %; Bladder volume, proportion for value before administration (%) ([4]; 1 mg/kg): 66.3 ± 6.0 %
CN(C)C(=O)Oc1ccc[n+](C)c1 [Pyridostigmine] |  |  |  |  |  |  |  |  |  |  |  | −1.49 ± 0.52% | 0.04 ± 0.38% | 2.87 ± 0.85 % | increased basic tension significantly and concentration-dependently | Tension (%) (bladder muscle; 10 μM): 7.71 ± 1.30 %; Tension (%) (bladder muscle; 30 μM): 14.38 ± 1.62 %
CN(CCCCCCN(C)C(=O)Oc1ccc[n+](C)c1)C(=O)Oc1ccc[n+](C)c1 [Distigmine] | 89.8 ± 10.3% | 115.9 ± 4.2% | 76.4 ± 5.8% | 53.4 ± 2.2 % | 83.6 ± 5.9% | 65.8 ± 11.9% | 142.4 ± 6.1 % | 49.2 ± 7.0% | 68.3 ± 7.9% | 80.0 ± 4.5% | lowered the bladder compliance significantly | −0.78 ± 0.50% | −0.35 ± 0.73% | 0.64 ± 0.49 % | increased tension slightly but significantly | Tension (%) (bladder muscle; 0.1 μM): −1.49 ± 0.30%; inhibitory activity for human butyrylcholine esterase [1]: inhibitory activity was confirmed; IC50 ([1]; read-out: Butyrylcholine esterase IC50): 540 nM; Amount of urination, proportion for value before administration (%) ([4]; 0.03 mg/kg): 73.9 ± 4.4%; At maximum urine flow rate Inner pressure of bladder, proportion for value before administration (%) ([4]; 0.03 mg/kg): 112.7 ± 6.6%; Maximum urine flow rate, proportion for value before administration (%) ([4]; 0.03 mg/kg): 75.1 ± 6.8%; Bladder compliance, proportion for value before administration (%) ([4]; 0.03 mg/kg): 64.6 ± 6.0%; Bladder volume, proportion for value before administration (%) ([4]; 0.03 mg/kg): 80.6 ± 3.3%; change of the parameters at urination and at collection of urine (text) ([4]; listed as distigmine): did not show clear action for the amount of urination and the maximum urine flow rate and increased urination pressure significantly; inhibition of the activity of human acetylcholine esterase [3]: inhibited the activity of human acetylcholine esterase; selectivity for acetylcholine esterase inhibitory activity (text, words) [3]: had scarcely selectivity; Selectivity b/a ([3]; BuChE IC50/AChE IC50 (Table 2)): 1.4; IC50 ([3]; read-out: Acetylcholine esterase IC50): 380 nM
